According to ChEMBL document CHEMBL5136977, “Discovery of 1-(5-(1H-benzo[d]imidazole-2-yl)-2,4-dimethyl-1H-pyrrol-3-yl)ethan-1-one derivatives as novel and potent bromodomain and extra-terminal (BET) inhibitors with anticancer efficacy” (Eur J Med Chem, 2022):
pIC50: −log10 of the molar value. The source made the active and inactive calls. No cut-off for these calls is given here.

Columns and labels:
MV4-11 [1] = experiment: Antiproliferative activity against human MV4-11 cells assessed as cell growth inhibition incubated for 72 hrs by CellTiter-Glo assay; assay type: functional, cell-based; details: MV4-11, 72 h
[2] = Metabolic stability in dog liver microsomes assessed as elimination half life incubated for 1 hr by LC-MS/MS analysis; assay type: ADME, Canis lupus familiaris, Microsome; details: read-out: beta t1/2
[3] = Metabolic stability in rat liver microsomes assessed as elimination half life incubated for 1 hr by LC-MS/MS analysis; assay type: ADME, Microsome; details: read-out: beta t1/2
[4] = Metabolic stability in human liver microsomes assessed as intrinsic clearance incubated for 1 hr by LC-MS/MS analysis; assay type: ADME, Microsome; details: read-out: CLH
[5] = Metabolic stability in monkey liver microsomes assessed as intrinsic clearance incubated for 1 hr by LC-MS/MS analysis; assay type: ADME, Macaca mulatta, Microsome; details: rhesus monkey, read-out: CLH
[6] = Metabolic stability in dog liver microsomes assessed as intrinsic clearance incubated for 1 hr by LC-MS/MS analysis; assay type: ADME, Canis lupus familiaris, Microsome; details: read-out: CLH
[7] = Metabolic stability in rat liver microsomes assessed as intrinsic clearance incubated for 1 hr by LC-MS/MS analysis; assay type: ADME, Microsome; details: read-out: CLH
[8] = Metabolic stability in human liver assessed as intrinsic clearance incubated for 1 hr by LC-MS/MS analysis; assay type: ADME, tissue-based; details: read-out: CLH
[9] = Metabolic stability in monkey liver assessed as intrinsic clearance incubated for 1 hr by LC-MS/MS analysis; assay type: ADME, tissue-based, Macaca mulatta; details: rhesus monkey, read-out: CLH
[10] = Metabolic stability in dog liver assessed as intrinsic clearance incubated for 1 hr by LC-MS/MS analysis; assay type: ADME, tissue-based, Canis lupus familiaris; details: read-out: CLH
[11] = Metabolic stability in rat liver assessed as intrinsic clearance incubated for 1 hr by LC-MS/MS analysis; assay type: ADME, tissue-based; details: read-out: CLH
[12] = AUC (0 to infinity) in Sprague-Dawley rat at 1 mg/kg, iv by LC-MS/MS analysis; assay type: ADME, organism-based; parameters: time infinity, dose 1 mg/kg, route iv; details: in vivo
[13] = C0 in Sprague-Dawley rat at 1 mg/kg, iv by LC-MS/MS analysis; assay type: ADME, organism-based; details: in vivo
[14] = Half life in Sprague-Dawley rat at 1 mg/kg, iv by LC-MS/MS analysis; assay type: ADME, organism-based; details: in vivo
[15] = Clearance in Sprague-Dawley rat at 1 mg/kg, iv by LC-MS/MS analysis; assay type: ADME, organism-based; details: in vivo
[16] = AUC (0 to infinity) in Sprague-Dawley rat at 10 mg/kg, po by LC-MS/MS analysis; assay type: ADME, organism-based; parameters: time infinity, dose 10 mg/kg, route po; details: in vivo
[17] = Cmax in Sprague-Dawley rat at 10 mg/kg, po by LC-MS/MS analysis; assay type: ADME, organism-based; parameters: dose 10 mg/kg, route po; details: in vivo
[18] = Tmax in Sprague-Dawley rat at 10 mg/kg, po by LC-MS/MS analysis; assay type: ADME, organism-based; details: in vivo
[19] = Oral bioavailability in Sprague-Dawley rat at 10 mg/kg by LC-MS/MS analysis; assay type: ADME, organism-based; details: in vivo
HL-60(TB) = experiment: Antiproliferative activity against human HL-60(TB) cells assessed as cell growth inhibition measured after 72 hrs by CellTiter-Glo assay; assay type: functional
NCI-H522 = experiment: Antiproliferative activity against human NCI-H522 cells assessed as cell growth inhibition measured after 72 hrs by CellTiter-Glo assay; assay type: functional
SNB-75 = experiment: Antiproliferative activity against human SNB-75 cells assessed as cell growth inhibition measured after 72 hrs by CellTiter-Glo assay; assay type: functional
UACC-62 = experiment: Antiproliferative activity against human UACC-62 cells assessed as cell growth inhibition measured after 72 hrs by CellTiter-Glo assay; assay type: functional
CAKI-1 = experiment: Antiproliferative activity against human CAKI-1 cells assessed as cell growth inhibition measured after 72 hrs by CellTiter-Glo assay; assay type: functional
MV4-11 [20] = experiment: Induction of cell cycle arrest in human MV4-11 cells assessed as accumulation of cells at G0/G1 phase at 100 nM incubated for 48 hrs by propidium iodide staining based flow cytometric analysis (reference value: 65.71%); assay type: functional
MV4-11 [21] = experiment: Induction of cell cycle arrest in human MV4-11 cells assessed as accumulation of cells at S phase at 100 nM incubated for 48 hrs by propidium iodide staining based flow cytometric analysis (reference value: 26.29%); assay type: functional
MV4-11 [22] = experiment: Induction of cell cycle arrest in human MV4-11 cells assessed as accumulation of cells at G0/G1 phase at 200 nM incubated for 48 hrs by propidium iodide staining based flow cytometric analysis (reference value: 65.71%); assay type: functional
MV4-11 [23] = experiment: Induction of cell cycle arrest in human MV4-11 cells assessed as accumulation of cells at G2/M phase at 200 nM incubated for 48 hrs by propidium iodide staining based flow cytometric analysis (reference value: 8%); assay type: functional
MV4-11 [24] = experiment: Induction of cell cycle arrest in human MV4-11 cells assessed as accumulation of cells at S phase at 200 nM incubated for 48 hrs by propidium iodide staining based flow cytometric analysis (reference value: 26.29%); assay type: functional
[25] = Induction of cell apoptosis in human MV4-11 cells assessed as early apoptotic cells at 200 nM incubated for 48 hrs by Annexin V-FITC/Propidium iodide staining based flow cytometry analysis (reference value: 1.42%); assay type: functional
[26] = Induction of cell apoptosis in human MV4-11 cells assessed as late apoptotic cells at 200 nM incubated for 48 hrs by Annexin V-FITC/Propidium iodide staining based flow cytometry analysis (reference value: 1.99%); assay type: functional
[27] = Induction of cell apoptosis in human MV4-11 cells assessed as […] cells at 200 nM incubated for 48 hrs by Annexin V-FITC/Propidium iodide staining based flow cytometry analysis (reference value: 96.6%); assay type: functional
[28] = Induction of cell apoptosis in human MV4-11 cells assessed as late apoptotic cells at 500 nM incubated for 48 hrs by Annexin V-FITC/Propidium iodide staining based flow cytometry analysis (reference value: 1.99%); assay type: functional
[29] = Induction of cell apoptosis in human MV4-11 cells assessed as early apoptotic cells at 1000 nM incubated for 48 hrs by Annexin V-FITC/Propidium iodide staining based flow cytometry analysis (reference value: 1.42%); assay type: functional
[30] = Induction of cell apoptosis in human MV4-11 cells assessed as late apoptotic cells at 1000 nM incubated for 48 hrs by Annexin V-FITC/Propidium iodide staining based flow cytometry analysis (reference value: 1.99%); assay type: functional
[31] = Induction of cell apoptosis in human MV4-11 cells assessed as […] cells at 1000 nM incubated for 48 hrs by Annexin V-FITC/Propidium iodide staining based flow cytometry analysis (reference value: 96.6%); assay type: functional
MV4-11 [32] = experiment: Induction of cell apoptosis in human MV4-11 cells assessed as upregulation of cleaved PARP level at 62.5 to 250 nM incubated for 24 hrs by Western blotting analysis; assay type: functional, cell-based; details: dose 62.5-250 nM
MV4-11 [33] = experiment: Antitumor activity against human MV4-11 cells xenografted BALB/c nude mouse model assessed as tumor growth inhibition at 20 mg/kg, po QD administered for 28 consecutive days; assay type: functional; details: MV4-11, 672 h, time 28 day, read-out: TGI
MV4-11 [34] = experiment: Antitumor activity against human MV4-11 cells xenografted BALB/c nude mouse model assessed as tumor growth inhibition at 40 mg/kg, po QD administered for 28 consecutive days; assay type: functional; details: MV4-11, 672 h, time 28 day, read-out: TGI
MV4-11 [35] = experiment: Antitumor activity against human MV4-11 cells xenografted BALB/c nude mouse model assessed as tumor growth inhibition at 80 mg/kg, po QD administered for 28 consecutive days; assay type: functional; details: MV4-11, 672 h, time 28 day, read-out: TGI

## CC(=O)c1c(C)[nH]c(-c2nc3cc(N4CCN(C)CC4)ccc3[nH]2)c1-c1ccccc1
MV4-11 [1]
  pIC50: 7.82
[2]
  half-life: 0.25 h
[3]
  half-life: 1.11 h
[4]
  microsomal CLint: 7.03 µL/min/mg
[5]
  microsomal CLint: 16.5 µL/min/mg
[6]
  microsomal CLint: 92.2 µL/min/mg
[7]
  microsomal CLint: 20.9 µL/min/mg
[8]
  CLint scaled: 6.64 mL/min/kg
[9]
  CLint scaled: 23.8 mL/min/kg
[10]
  CLint scaled: 133 mL/min/kg
[11]
  CLint scaled: 37.6 mL/min/kg
[12]
  AUC(0-inf): 725 ng·h/mL
[13]
  C0: 548 ng/mL
[14]
  half-life: 1.86 h
[15]
  clearance: 24.3 mL/min/kg
[16]
  AUC(0-inf): 8050 ng·h/mL
[17]
  Cmax: 1270 ng/mL
[18]
  Tmax: 3.33 h
[19]
  bioavailability: 111%
HL-60(TB)
  GI50: 261 nM
NCI-H522
  GI50: 258 nM
SNB-75
  GI50: 41.6 nM
UACC-62
  GI50: 274 nM
CAKI-1
  GI50: 211 nM
MV4-11 [20]
  Activity: 75.41%
MV4-11 [21]
  Activity: 18.26%
MV4-11 [22]
  Activity: 87.4%
MV4-11 [23]
  Activity: 2.92%
MV4-11 [24]
  Activity: 9.68%
[25]
  Activity: 5.31%
[26]
  Activity: 4.78%
[27]
  Activity: 89.7%
[28]
  Activity: 76.4%
[29]
  Activity: 39.3%
[30]
  Activity: 12.2%
[31]
  Activity: 48.2%
MV4-11 [32]
  Activity: Active
MV4-11 [33]
  inhibition in vivo at 20 mg/kg: 48.7%
MV4-11 [34]
  inhibition in vivo at 40 mg/kg: 103%
MV4-11 [35]
  inhibition in vivo at 80 mg/kg: 34.8%
